# Target: HIV RT (Human immunodeficiency virus type 1 group M subtype B, UniProt P04585)
# Experiment: Enzyme kinetics studies (1/v versus 1/[dTTP])
# Assay type: biochemical
# Details: 40-3 μM dTTP, 2-0 μM compound 1, poly(rA)oligo(dT); lines cross at the Y-axis intercept
# Description: The enzyme kinetics studies were carried out using a protocol involving a 4×5 matrix of varying substrate and inhibitor concentrations over ranges of 40-3 μM of dTTP and 2-0 μM of compound 1.
# The reaction mixtures (50 μl) further contained 50 mM Tris.HCl (pH 7.8), 5 mM dithiothreitol, […], 500 μM EDTA, 150 mM KCl, 5 mM MgCl2, 0.15 mM of the template/primer poly(rA)oligo(dT) and 0.06% Triton X-100. The reaction mixtures were incubated at 37° C. for 15 min, at which time 100 μl of calf thymus DNA ([…]), 2 ml of Na4P207 (0.1 M in 1 M HCl), and 2 ml of trichloroacetic acid (10% v/v) were added. The solutions were kept on ice for 30 min, after which the acid-insoluble material was washed and analyzed for radioactivity. When the reciprocal of the reaction velocity (1/v) is plotted against the reciprocal of the substrate concentration (1/[dTTP]) in the presence of different concentrations of compound 1, the graph (See FIG. 1) is obtained.
# Since all the lines cross at the intercept with the Y-axis it is clear that this compound has a competitive mode of HIV RT inhibition.
compound,measurement,value
Cn1c2ccccc2c2c1cc(C#N)c(=O)n2-c1ccc([N+](=O)[O-])cc1 [Compound 1],mode of HIV RT inhibition,competitive

# From US20080213810A1, “Screening Method for Hiv Rt Inhibitors” (priority 2005, published 2008)
